Experimental data: patent US20170114021A1, “HALOGEN-SUBSTITUTED COMPOUNDS” (priority 2014, published 2017)
Read-outs that look alike come from different tables or passages of the source.

Assays:
[1] = log P by HPLC on reversed-phase column (C18), EEC Directive 79/831 Annex V.A8; format: physicochemical
Method: ^a) Unless indicated otherwise, the following method was used to determine the log P values and masses: The determination of the given log P values was carried out in accordance with EEC Directive 79/831 Annex V.A8 by HPLC (High Performance Liquid Chromatography) on a reversed-phase column (C18). Agilent 1100 LC system; 50*4.6 Zorbax Eclipse Plus C18 1.8 micron; mobile phase A: acetonitrile (0.1% formic acid); mobile phase B: water (0.09% formic acid); linear gradient from 10% acetonitrile to 95% acetonitrile in 4.25 min, then 95% acetonitrile for a further 1.25 min; oven temperature 55° C.; flow rate: 2.0 ml/min. Mass detection is effected by means of an Agilend MSD system.

Phaedon cochleariae = Phaedon cochleariae spray test (PHAECO); format: in vivo; settings: Chinese cabbage leaf discs, after 7 days
Method: Phaedon cochleariae—Spray Test (PHAECO) Solvent: 78.0 parts by weight of acetone • • 1.5 parts by weight of dimethylformamide Emulsifier: alkylaryl polyglycol ether
(§1) To produce a suitable preparation of active compound, 1 part by weight of active compound is dissolved using the specified parts by weight of solvent and made up with water containing an emulsifier concentration of 1000 ppm until the desired concentration is attained. To produce further test concentrations, the preparation is diluted with emulsifier-containing water.
After 7 days, efficacy in % is determined. 100% means that all the beetle larvae have been killed; 0% means that no beetle larvae have been killed.

Spodoptera frugiperda = Spodoptera frugiperda spray test (SPODFR); format: in vivo; settings: application rate 100 g/ha; maize leaf discs; after 7 days
Method: Spodoptera frugiperda—Spray Test (SPODFR)
Solvent: 78.0 parts by weight of acetone • • 1.5 parts by weight of dimethylformamide Emulsifier: alkylaryl polyglycol ether
as §1
Leaf discs of maize (Zea mays) are sprayed with an active compound preparation of the desired concentration and, after drying, populated with caterpillars of the armyworm (Spodoptera frugiperda).
After 7 days, efficacy in % is determined. 100% means that all the caterpillars have been killed; 0% means that no caterpillars have been killed.

Boophilus microplus = Boophilus microplus injection test (BOOPMI Inj); format: in vivo; settings: application rate 20 μg/animal; injection into abdomen
Method: Boophilus microplus—Injection Test (BOOPMI Inj) Solvent: dimethyl sulphoxide
To produce a suitable preparation of active compound, 10 mg of active compound are mixed with 0.5 ml of solvent and the concentrate is diluted with solvent to the desired concentration.
1 μl of the active compound solution is injected into the abdomen of 5 engorged adult female cattle ticks (Boophilus microplus). The animals are transferred into dishes and kept in a climate-controlled room.
The activity is assessed after the desired time by laying of fertile eggs. Eggs which are not visibly fertile are stored in a climate-controlled cabinet until the larvae hatch after about 42 days. An efficacy of 100% means that none of the ticks has laid any fertile eggs; 0% means that all the eggs are fertile.

Ctenocephalides felis = Ctenocephalides felis oral test (CTECFE); format: in vivo; settings: application rate 100 ppm in citrated cattle blood; after 2 days
Method: Ctenocephalides felis—Oral Test (CTECFE) Solvent: dimethyl sulphoxide
To produce a suitable preparation of active compound, 10 mg of active compound are mixed with 0.5 ml of dimethyl sulphoxide. Dilution with citrated cattle blood gives the desired concentration.
About 20 unfed adult cat fleas (Ctenocephalides felis) are placed into a chamber which is closed at the top and bottom with gauze. A metal cylinder whose bottom end is closed with parafilm is placed onto the chamber. The cylinder contains the blood/active compound preparation, which can be imbibed by the fleas through the parafilm membrane.
After 2 days, the kill in % is determined. 100% means that all of the fleas have been killed; 0% means that none of the fleas have been killed.

Lucilia cuprina = Lucilia cuprina test (LUCICU); format: in vivo; settings: application rate 100 ppm; L1 larvae; after 2 days
Method: Lucilia cuprina-Test (LUCICU) Solvent: dimethyl sulphoxide
(§2) To produce a suitable preparation of active compound, 10 mg of active compound are mixed with 0.5 ml of dimethyl sulphoxide, and the concentrate is diluted with water to the desired concentration.
About 20 L1 larvae of the Australian sheep blowfly (Lucilia cuprina) are transferred into a test vessel containing minced horsemeat and the active compound preparation of the desired concentration.
After 2 days, the kill in % is determined. 100% means that all the larvae have been killed; 0% means that no larvae have been killed.

Musca domestica = Musca domestica test (MUSCDO); format: in vivo; settings: application rate 100 ppm; adult houseflies; after 2 days
Method: Musca domestica-Test (MUSCDO) Solvent: dimethyl sulphoxide
as §2
Vessels containing a sponge treated with sugar solution and the active compound preparation of the desired concentration are populated with 10 adult houseflies (Musca domestica).
After 2 days, the kill in % is determined. 100% means that all of the flies have been killed; 0% means that none of the flies have been killed.

Tetranychus urticae = Tetranychus urticae spray test, OP-resistant (TETRUR); format: in vivo; settings: application rate 100 g/ha; bean leaf discs; after 6 days
Method: Tetranychus urticae—Spray Test, OP-Resistant (TETRUR) Solvent: 78.0 parts by weight of acetone • • 1.5 parts by weight of dimethylformamide Emulsifier: alkylaryl polyglycol ether
as §1
Discs of bean leaves (Phaseolus vulgaris) infested by all stages of the greenhouse red spider mite (Tetranychus urticae) are sprayed with an active ingredient formulation of the desired concentration.
After 6 days, efficacy in % is determined. 100% means that all the spider mites have been killed; 0% means that no spider mites have been killed.

[2] = reversed-phase C18 HPLC column, HPLC, C18, acetonitrile/water with formic acid gradient, read-out: log P

| Structure (SMILES) | chromatographic logP [1, 2] | also measured |
| --- | --- | --- |
| CC(=O)c1c(C(F)(F)F)c(C(F)(F)C(F)(F)F)nn1C [1-[1-methyl-3-(pentafluoroethyl)-4-(trifluoromethyl)-1H-pyrazol-5-yl]ethanone] | 3.61 | – |
| Cn1cc(C(F)(F)F)c(C(F)(F)C(F)(F)F)n1 [1-methyl-3-(1,1,2,2,2-pentafluoroethyl)-4-(trifluoromethyl)pyrazole] | – | chromatographic logP [1]: 3.23 |
| Cn1nc(C(F)(F)C(F)(F)F)c(C(F)(F)F)c1B1OC(C)(C)C(C)(C)O1 [1-methyl-3-(1,1,2,2,2-pentafluoroethyl)-5-(4,4,5,5-tetramethyl-1,3,2-dioxaborolan-2-yl)-4-(trifluoromethyl)pyrazole] | 5.05 | – |
| O=C(NC1CC1)c1cc(I)ccc1Cl [2-chloro-N-cyclopropyl-5-iodobenzamide] | 2.13 | – |
| Cn1nc(C(F)(F)C(F)(F)F)c(C(F)(F)F)c1-c1cc[nH]n1 [2′-methyl-5′-(pentafluoroethyl)-4′-(trifluoromethyl)-1H,2′H-3,3′-bipyrazole] | 3.03 | – |
| Cn1nc(C(F)(F)C(F)(F)F)c(C(F)(F)F)c1-c1c[nH]nn1 [4-[1-methyl-3-(pentafluoroethyl)-4-(trifluoromethyl)-1H-pyrazol-5-yl]-1H-1,2,3-triazole] | 2.78 | – |
| O=C(NC1CC1)c1cc(-n2cc(Br)cn2)ccc1Cl [5-(4-bromopyrazol-1-yl)-2-chloro-N-cyclopropylbenzamide] | 2.36 | – |
| Cn1nc(C(F)(F)C(F)(F)F)c(C(F)(F)F)c1-c1nn[nH]n1 [5-[1-methyl-3-(pentafluoroethyl)-4-(trifluoromethyl)-1H-pyrazol-5-yl]-2H-tetrazole] | 2.11 | – |
| CN(C)/C=C/C(=O)c1c(C(F)(F)F)c(C(F)(F)C(F)(F)F)nn1C [(2E)-3-(dimethylamino)-1-[1-methyl-3-(pentafluoroethyl)-4-(trifluoromethyl)-1H-pyrazol-5-yl]prop-2-en-1-one] | 2.77 | – |
| Cn1nc(C(F)(F)C(F)(F)F)c(C(F)(F)F)c1-c1ccn(-c2ccc(Cl)c(C(=O)NC3CC3)c2)n1 [Id-1, 2-chloro-N-cyclopropyl-5-[2′-methyl-5′-(pentafluoroethyl)-4′-(trifluoromethyl)-1H,2′H-3,3′-bipyrazol-1-yl]benzamide] | 4.05 | efficacy (Phaedon cochleariae; application rate 100 g/ha): 100%; efficacy (Spodoptera frugiperda): 100% |
| Cn1nc(C(F)(F)C(F)(F)F)c(C(F)(F)F)c1-c1cnn(-c2ccc(Cl)c(C(=O)NC3CC3)c2)n1 [If-1, 2-chloro-N-cyclopropyl-5-{4-[1-methyl-3-(pentafluoroethyl)-4-(trifluoromethyl)-1H-pyrazol-5-yl]-2H-1,2,3-triazol-2-yl}benzamide] | 4.17 | efficacy (laying of fertile eggs) (Boophilus microplus): 100%; efficacy (kill) (Ctenocephalides felis): 100%; efficacy (kill) (Lucilia cuprina): 100%; efficacy (kill) (Musca domestica): 100%; efficacy (Phaedon cochleariae; application rate 100 g/ha): 100%; efficacy (Spodoptera frugiperda): 100%; efficacy (Tetranychus urticae): 100% |

The next lines start with results.

| chromatographic logP [1, 2] | Structure (SMILES) | also measured |
| --- | --- | --- |
| 1.8 | [N-]=[N+]=Nc1ccc(Cl)c(C(=O)NC2CC2)c1 [5-azido-2-chloro-N-cyclopropylbenzamide] | – |
| 3.74 | C#Cc1c(C(F)(F)F)c(C(F)(F)C(F)(F)F)nn1C [5-ethynyl-1-methyl-3-(pentafluoroethyl)-4-(trifluoromethyl)-1H-pyrazole] | – |
| 4.06 | Cn1nc(C(F)(F)C(F)(F)F)c(C(F)(F)F)c1-c1nnn(-c2ccc(Cl)c(C(=O)NC3CC3)c2)n1 [Ih-1, 2-chloro-N-cyclopropyl-5-{5-[1-methyl-3-(pentafluoroethyl)-4-(trifluoromethyl)-1H-pyrazol-5-yl]-2H-tetrazol-2-yl}benzamide] | efficacy (Phaedon cochleariae; application rate 20 g/ha): 100%; efficacy (Spodoptera frugiperda): 100%; efficacy (Tetranychus urticae): 90% |
| 3.22 | CON(C)C(=O)c1c(C(F)(F)F)c(C(F)(F)C(F)(F)F)nn1C [N-methoxy-N,1-dimethyl-3-(pentafluoroethyl)-4-(trifluoromethyl)-1H-pyrazole-5-carboxamide] | – |
| 0.96 | O=C(NC1CC1)c1cc(B(O)O)ccc1Cl [[4-chloro-3-(cyclopropylcarbamoyl)phenyl]boronic acid] | – |
